pIC50: −log10 of the molar value.
Target: T1, human PPARα (Homo sapiens, UniProt Q07869)
T1 construct: host or cells: proprietary non-human mammalian cells
T1 sequence (Q07869 1-468): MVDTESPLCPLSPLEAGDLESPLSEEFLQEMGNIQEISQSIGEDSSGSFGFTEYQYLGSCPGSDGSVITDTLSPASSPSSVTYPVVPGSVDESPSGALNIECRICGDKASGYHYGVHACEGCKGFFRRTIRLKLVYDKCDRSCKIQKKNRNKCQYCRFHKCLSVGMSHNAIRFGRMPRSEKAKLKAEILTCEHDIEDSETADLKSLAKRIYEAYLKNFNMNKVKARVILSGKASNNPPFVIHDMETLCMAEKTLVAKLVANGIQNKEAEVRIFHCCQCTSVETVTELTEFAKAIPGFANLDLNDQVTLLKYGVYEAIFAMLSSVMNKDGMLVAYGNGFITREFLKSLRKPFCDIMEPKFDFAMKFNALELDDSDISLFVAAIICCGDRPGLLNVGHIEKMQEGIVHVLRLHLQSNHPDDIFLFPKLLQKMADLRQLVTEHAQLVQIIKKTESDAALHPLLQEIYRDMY
Assay: Human PPARα Reporter Assay (luciferase, Indigo Biosciences)
Assay type: cell-based
Details: antagonism; luciferase reporter cells, overnight incubation; read-out: PPARα IC50
Method: Human PPARα Reporter Assay
The screening of test compounds for agonist or antagonist activities against human PPARα receptors was performed using a commercial kit, Human PPARα Reporter Assay System (Indigo Biosciences, Cat. #IB00111).
This nuclear receptor assay system utilizes proprietary non-human mammalian cells engineered to provide constitutive, high-level expression of Human PPARα. Because these cells incorporate a PPARα-responsive luciferase reporter gene, quantifying expressed luciferase activity provides a sensitive surrogate measure of PPARα activity in the treated cells. The primary application of this reporter assay system is in the screening of test samples to quantify any functional activity, either agonist or antagonist, that they may exert against human PPARα.
Briefly, reporter cells are dispensed into wells of the assay plate and then immediately dosed with test compounds. Following an overnight incubation, the treatment media is discarded and Luciferase Detection Reagent (LDR) is added. The intensity of light emission from the ensuing luciferase reaction provides a sensitive measure that is directly proportional to the relative level of PPARα activation in the reporter cells.

pIC50 | Compound
6.02 | CC(C)(Oc1ccc(CCCC2=NN(Cc3ccc(C(F)(F)F)cc3)C(=O)C23CCCC3)cc1)C(=O)O [Example 34, 2-methyl-2-(4-(3-(4-oxo-3-(4-(trifluoromethyl)benzyl)-2,3-diazaspiro[4,4]non-1-en-1-yl)propyl)phenoxy)propanoic acid]
7.49 | CC(C)(Oc1ccc(CCCC2=NN(c3cccc(C(F)(F)F)c3)C(=O)C23CCCC3)cc1)C(=O)O [Example 35, 2-methyl-2-(4-(3-(4-oxo-3-(3-(trifluoromethyl)phenyl)-2,3-diazaspiro[4,4]non-1-en-1-yl)propyl)phenoxy)propanoic acid]
7.57 | CC(C)(Oc1ccc(CCCC2=NN(c3cccc(OC(F)(F)F)c3)C(=O)C23CCCC3)cc1)C(=O)O [Example 36, 2-methyl-2-(4-(3-(4-oxo-3-(3-(trifluoromethoxy)phenyl)-2,3-diazaspiro[4,4]non-1-en-1-yl)propyl)phenoxy)propanoic acid]
8.55 | CC(C)(Oc1ccc(CCCC2=NN(c3ccc4ccccc4c3)C(=O)C23CCCC3)cc1)C(=O)O [Example 37, 2-methyl-2-(4-(3-(3-(naphthalen-2-yl)-4-oxo-2,3-diazaspiro[4,4]non-1-en-1-yl)propyl)phenoxy)propanoic acid]
7.60 | CC(C)(Oc1ccc(CCCC2=NN(c3cccc(-c4ccccc4)c3)C(=O)C23CCCC3)cc1)C(=O)O [Example 38, 2-(4-(3-(3-([1,1′-biphenyl]-3-yl)-4-oxo-2,3-diazaspiro[4,4]non-1-en-1-yl)propyl)phenoxy)-2-methylpropanoic acid]
8.51 | Cc1ccc(N2N=C(CCCc3ccc(OC(C)(C)C(=O)O)cc3)C3(CCCC3)C2=O)cc1C(F)(F)F [Example 39, 2-methyl-2-(4-(3-(3-(4-methyl-3-(trifluoromethyl)phenyl)-4-oxo-2,3-diazaspiro[4,4]non-1-en-1-yl)propyl)phenoxy)propanoic acid]
7.70 | CC(C)(Oc1ccc(CCCC2=NN(c3cccc(C(C)(C)C)c3)C(=O)C23CCCC3)cc1)C(=O)O [Example 40, 2-(4-(3-(3-(3-(tert-butyl)phenyl)-4-oxo-2,3-diazaspiro[4,4]non-1-en-1-yl)propyl)phenoxy)-2-methylpropanoic acid]
4.82 | CCCC1(CCC)C(=O)N(c2ccc(C(F)(F)F)cc2)N=C1CCCc1ccc(OC(C)(C)C(=O)O)cc1 [Example 41, 2-methyl-2-(4-(3-(5-oxo-4,4-dipropyl-1-(4-(trifluoromethyl)phenyl)-4,5-dihydro-1H-pyrazol-3-yl)propyl)phenoxy)propanoic acid]
4.47 | CCCC1(CCC)C(=O)N(c2cccc(C(F)(F)F)c2)N=C1CCCc1ccc(OC(C)(C)C(=O)O)cc1 [Example 42, 2-methyl-2-(4-(3-(5-oxo-4,4-dipropyl-1-(3-(trifluoromethyl)phenyl)-4,5-dihydro-1H-pyrazol-3-yl)propyl)phenoxy)propanoic acid]
5.92 | CC1(C)C(=O)N(c2ccc(C(F)(F)F)cc2)N=C1CCCc1ccc(OC(C)(C)C(O)C(F)(F)F)cc1 (centres unmarked) [Example 43, 4,4-dimethyl-3-(3-(4-((4,4,4-trifluoro-3-hydroxy-2-methylbutan-2-yl)oxy)phenyl)propyl)-1-(4-(trifluoromethyl)phenyl)-1H-pyrazol-5(4H)-one]
6.21 | CC(C)(Oc1ccc(CCCC2=NN(c3ccc(C(F)(F)F)cc3)C(=O)C2(C)C)cc1)C(=O)C(F)(F)F [Example 44, 4,4-dimethyl-3-(3-(4-((4,4,4-trifluoro-2-methyl-3-oxobutan-2-yl)oxy)phenyl)propyl)-1-(4-(trifluoromethyl)phenyl)-1H-pyrazol-5(4H)-one]
6.08 | CC(C)(CN)Oc1ccc(CCCC2=NN(c3ccc(C(F)(F)F)cc3)C(=O)C23CCCC3)cc1 [Example 45, 4-(3-(4-((1-amino-2-methylpropan-2-yl)oxy)phenyl)propyl)-2-(4-(trifluoromethyl)phenyl)-2,3-diazaspiro[4,4]non-3-en-1-one]
5.89 | CC(C)(CNS(=O)(=O)c1ccccc1)Oc1ccc(CCCC2=NN(c3ccc(C(F)(F)F)cc3)C(=O)C23CCCC3)cc1 [Example 46, N-(2-methyl-2-(4-(3-(4-oxo-3-(4-(trifluoromethyl)phenyl)-2,3-diazaspiro[4,4]non-1-en-1-yl)propyl)phenoxy)propyl)benzenesulfonamide]
6.24 | CC(C)(CNC(=O)c1ccccc1)Oc1ccc(CCCC2=NN(c3ccc(C(F)(F)F)cc3)C(=O)C23CCCC3)cc1 [Example 47, N-(2-methyl-2-(4-(3-(4-oxo-3-(4-(trifluoromethyl)phenyl)-2,3-diazaspiro[4,4]non-1-en-1-yl)propyl)phenoxy)propyl)benzamide]
8.33 | CC1(C)C(=O)N(c2ccc(C(F)(F)F)cc2)N=C1CCCc1ccc(OC(C(=O)O)c2ccccc2)cc1 (centres unmarked) [Example 48, 2-(4-(3-(4,4-dimethyl-5-oxo-1-(4-(trifluoromethyl)phenyl)-4,5-dihydro-1H-pyrazol-3-yl)propyl)phenoxy)-2-phenylacetic acid]
7.27 | CC1(C)C(=O)N(c2ccc(C(F)(F)F)cc2)N=C1CCCc1ccc(OCC(=O)O)cc1 [Example 49, 2-(4-(3-(4,4-dimethyl-5-oxo-1-(4-(trifluoromethyl)phenyl)-4,5-dihydro-1H-pyrazol-3-yl)propyl)phenoxy)acetic acid]
7.24 | CC1(C)C(=O)N(c2cccc(C(F)(F)F)c2)N=C1CCCc1ccc(OC2(C(=O)O)CCC2)cc1 [Example 51, 1-(4-(3-(4,4-dimethyl-5-oxo-1-(3-(trifluoromethyl)phenyl)-4,5-dihydro-1H-pyrazol-3-yl)propyl)phenoxy)cyclobutanecarboxylic acid]
8.39 | CC1(C)C(=O)N(c2ccc(C(F)(F)F)cc2)N=C1CCCc1ccc(OC2(C(=O)O)CCCC2)cc1 [Example 52, 1-(4-(3-(4,4-dimethyl-5-oxo-1-(4-(trifluoromethyl)phenyl)-4,5-dihydro-1H-pyrazol-3-yl)propyl)phenoxy)cyclopentanecarboxylic acid]
6.96 | CCOc1ccc(-c2ccc(CCCC3=NN(Cc4ccc(C(C)(C)C)cc4)C(=O)C3(C)C)cc2)cc1CC(=O)O [Example 55, 2-(4′-(3-(1-(4-(tert-butyl)benzyl)-4,4-dimethyl-5-oxo-4,5-dihydro-1H-pyrazol-3-yl)propyl)-4-ethoxy-[1,1′-biphenyl]-3-yl)acetic acid]
8.00 | COc1ccc(-c2ccc(CCCC3=NN(Cc4ccc(C(C)(C)C)cc4)C(=O)C3(C)C)cc2)nc1NS(=O)(=O)c1ccccc1 [Example 59, N-(6-(4-(3-(1-(4-(tert-butyl)benzyl)-4,4-dimethyl-5-oxo-4,5-dihydro-1H-pyrazol-3-yl)propyl)phenyl)-3-methoxypyridin-2-yl)benzenesulfonamide]

— patent publication US9862708B2, “Pyrazolone compounds and uses thereof” (Tempest Therapeutics, Inc., priority 2014, dated 2018)
